Test results reported in the NIST ThermoML archive (doi:10.1021/je050498q).
± gives the expanded uncertainty stated by the source.

Experiments:
[1] = wn = mass fraction of the nth substance listed; conditions: 101 kPa, Liquid
[2] = refractive index (Na D-line) (dimensionless); wn = mass fraction of the nth substance listed; conditions: 101 kPa, Liquid

O=C([O-])[C@H](O)[C@@H](O)C(=O)[O-].[Na+].[Na+] [disodium L-tartrate] + O
Conditions	refractive index, 298.15 K	refractive index, 308.15 K	refractive index, 318.15 K	viscosity, 298.15 K [mPa·s]	viscosity, 308.15 K [mPa·s]	viscosity, 318.15 K [mPa·s]
[1], w1 = 0.01986	–	–	–	0.932 ± 0.024	0.773 ± 0.02	0.644 ± 0.018
[1], w1 = 0.03991	–	–	–	0.995 ± 0.025	0.824 ± 0.022	0.683 ± 0.018
[1], w1 = 0.06024	–	–	–	1.06 ± 0.027	0.885 ± 0.023	0.726 ± 0.019
[1], w1 = 0.08009	–	–	–	1.137 ± 0.028	0.952 ± 0.024	0.782 ± 0.021
[1], w1 = 0.09999	–	–	–	1.23 ± 0.03	1.02 ± 0.026	0.832 ± 0.022
[1], w1 = 0.12	–	–	–	1.321 ± 0.032	1.098 ± 0.028	0.894 ± 0.023
[1], w1 = 0.14	–	–	–	1.431 ± 0.035	1.184 ± 0.03	0.959 ± 0.025
[1], w1 = 0.16	–	–	–	1.56 ± 0.038	1.278 ± 0.032	1.024 ± 0.026
[1], w1 = 0.1795	–	–	–	1.706 ± 0.041	1.38 ± 0.034	1.101 ± 0.028
[1], w1 = 0.2007	–	–	–	1.891 ± 0.045	1.519 ± 0.037	1.215 ± 0.03
[1], w1 = 0.2196	–	–	–	2.086 ± 0.049	1.669 ± 0.04	1.334 ± 0.033
[1], w1 = 0.2402	–	–	–	2.301 ± 0.054	1.857 ± 0.045	1.475 ± 0.036
[1], w1 = 0.26	–	–	–	2.563 ± 0.06	2.055 ± 0.049	1.647 ± 0.04
[1], w1 = 0.2806	–	–	–	2.897 ± 0.067	2.305 ± 0.055	1.846 ± 0.044
[2], w1 = 0.0099	1.3343 ± 0.0007	1.3331 ± 0.0007	1.3318 ± 0.0007	–	–	–
[2], w1 = 0.0192	1.336 ± 0.0007	1.3346 ± 0.0007	1.3335 ± 0.0007	–	–	–
[2], w1 = 0.0282	1.3373 ± 0.0007	1.3363 ± 0.0007	1.3351 ± 0.0007	–	–	–
[2], w1 = 0.0371	1.3389 ± 0.0007	1.3378 ± 0.0007	1.3367 ± 0.0007	–	–	–
[2], w1 = 0.046	1.3405 ± 0.0007	1.3393 ± 0.0007	1.3381 ± 0.0007	–	–	–
[2], w1 = 0.0547	1.3418 ± 0.0007	1.3408 ± 0.0007	1.3396 ± 0.0007	–	–	–
[2], w1 = 0.0625	1.3432 ± 0.0007	1.3421 ± 0.0007	1.341 ± 0.0007	–	–	–
[2], w1 = 0.0714	1.3447 ± 0.0007	1.3435 ± 0.0007	1.3425 ± 0.0007	–	–	–
[2], w1 = 0.0793	1.346 ± 0.0007	1.3449 ± 0.0007	1.3439 ± 0.0007	–	–	–
[2], w1 = 0.0872	1.3475 ± 0.0007	1.3462 ± 0.0007	1.3452 ± 0.0007	–	–	–
[2], w1 = 0.0948	1.3486 ± 0.0007	1.3475 ± 0.0007	1.3464 ± 0.0007	–	–	–
[2], w1 = 0.1026	1.3502 ± 0.0007	1.3488 ± 0.0007	1.3479 ± 0.0007	–	–	–
[2], w1 = 0.1098	1.3511 ± 0.0007	1.35 ± 0.0007	1.349 ± 0.0007	–	–	–
[2], w1 = 0.1169	1.3526 ± 0.0007	1.3512 ± 0.0007	1.3502 ± 0.0007	–	–	–
[2], w1 = 0.1223	1.3535 ± 0.0007	1.3523 ± 0.0007	1.3513 ± 0.0007	–	–	–
[2], w1 = 0.1314	1.3551 ± 0.0006	1.3537 ± 0.0006	1.3526 ± 0.0006	–	–	–
[2], w1 = 0.1361	1.3557 ± 0.0006	1.3545 ± 0.0006	1.3536 ± 0.0006	–	–	–
[2], w1 = 0.1437	1.3572 ± 0.0006	1.356 ± 0.0006	1.3548 ± 0.0006	–	–	–
[2], w1 = 0.1514	1.3584 ± 0.0006	1.3572 ± 0.0006	1.3562 ± 0.0006	–	–	–
[2], w1 = 0.1577	1.3594 ± 0.0006	1.3582 ± 0.0006	1.3573 ± 0.0006	–	–	–
[2], w1 = 0.1646	1.3607 ± 0.0006	1.3596 ± 0.0006	1.3587 ± 0.0006	–	–	–
[2], w1 = 0.1697	1.3616 ± 0.0006	1.3606 ± 0.0006	1.3595 ± 0.0006	–	–	–
[2], w1 = 0.1769	1.363 ± 0.0006	1.3617 ± 0.0006	1.3607 ± 0.0006	–	–	–
[2], w1 = 0.1825	1.3639 ± 0.0006	1.3627 ± 0.0006	1.3616 ± 0.0006	–	–	–
[2], w1 = 0.1886	1.3649 ± 0.0006	1.3637 ± 0.0006	1.3627 ± 0.0006	–	–	–
[2], w1 = 0.1941	1.366 ± 0.0006	1.3646 ± 0.0006	1.3636 ± 0.0006	–	–	–
[2], w1 = 0.1996	1.3668 ± 0.0006	1.3655 ± 0.0006	1.3644 ± 0.0006	–	–	–
[2], w1 = 0.2048	1.3677 ± 0.0006	1.3664 ± 0.0006	1.3654 ± 0.0006	–	–	–
[2], w1 = 0.2116	1.3689 ± 0.0006	1.3675 ± 0.0006	1.3666 ± 0.0006	–	–	–
[2], w1 = 0.2167	1.3697 ± 0.0006	1.3685 ± 0.0006	1.3675 ± 0.0006	–	–	–
[2], w1 = 0.2221	1.3707 ± 0.0006	1.3696 ± 0.0006	1.3684 ± 0.0006	–	–	–
[2], w1 = 0.2281	1.3719 ± 0.0006	1.3707 ± 0.0006	1.3695 ± 0.0006	–	–	–
[2], w1 = 0.2328	1.3728 ± 0.0006	1.3715 ± 0.0006	1.3703 ± 0.0006	–	–	–
[2], w1 = 0.243	1.3744 ± 0.0006	1.3731 ± 0.0006	1.372 ± 0.0006	–	–	–
[2], w1 = 0.2493	1.3755 ± 0.0006	1.3744 ± 0.0006	1.3732 ± 0.0006	–	–	–
[2], w1 = 0.2577	1.377 ± 0.0006	1.3759 ± 0.0006	1.3749 ± 0.0006	–	–	–
[2], w1 = 0.2622	1.3778 ± 0.0006	1.3765 ± 0.0006	1.3757 ± 0.0006	–	–	–
[2], w1 = 0.2681	1.379 ± 0.0006	1.3777 ± 0.0006	1.3765 ± 0.0006	–	–	–
[2], w1 = 0.2757	1.3802 ± 0.0006	1.3791 ± 0.0006	1.3778 ± 0.0006	–	–	–
[2], w1 = 0.2859	1.3821 ± 0.0006	1.3809 ± 0.0006	1.3798 ± 0.0006	–	–	–
[2], w1 = 0.2979	1.384 ± 0.0006	1.3829 ± 0.0006	1.3819 ± 0.0006	–	–	–
[2], w1 = 0.3085	1.3861 ± 0.0006	1.3848 ± 0.0006	1.3841 ± 0.0006	–	–	–
